# Measured values reported in patent US10087192B2, “2-(het)aryl-substituted fused bicyclic heterocycle derivatives as pesticides” (BAYER CROPSCIENCE AKTIENGESELLSCHSAFT, priority 2015, dated 2018).
# Key:
# Type in all cases: in vivo
# Myzus persicae [1] = assay: Myzus persicae spray test (bell pepper plants); conditions: 100 ppm, after 6 days
# Description: Myzus persicae Spray Test Solvent: 7 parts by weight of dimethylformamide Emulsifier: alkylaryl polyglycol ether […] To produce further test concentrations, the preparation is diluted with emulsifier-containing water. If the addition of ammonium salts or/and penetrants is required, these are each added in a concentration of 1000 ppm to the formulation solution. Bell pepper plants (Capsicum annuum) severely infested with the green peach aphid (Myzus persicae) are treated by spraying with the active compound preparation in the desired concentration.
# Lucilia cuprina = Lucilia cuprina test; conditions: 100 ppm, after 2 days, L1 larvae
# Description: (§1) Solvent: dimethyl sulphoxide
# (§2) To produce a suitable preparation of active compound, 10 mg of active compound are mixed with 0.5 ml of dimethyl sulphoxide, and the concentrate is diluted with water to the desired concentration.
# About 20 L1 larvae of the Australian sheep blowfly (Lucilia cuprina) are transferred into a test vessel containing minced horsemeat and the active compound preparation of the desired concentration.
# After 2 days, the kill in % is determined. 100% means that all the larvae have been killed; 0% means that no larvae have been killed.
# Ctenocephalides felis [2] = assay: Ctenocephalides felis oral test; conditions: 100 ppm in citrated cattle blood, after 2 days
# Source text: Ctenocephalides felis—Oral Test Solvent: dimethyl sulphoxide […] Dilution with citrated cattle blood gives the desired concentration. About 20 unfed adult cat fleas (Ctenocephalides felis) are placed into a chamber which is closed at the top and bottom with gauze. A metal cylinder whose bottom end is closed with parafilm is placed onto the chamber. The cylinder contains the blood/active compound preparation, which can be imbibed by the fleas through the parafilm membrane.
# Ctenocephalides felis [3] = assay: Ctenocephalides felis in vitro contact test with adult cat fleas; conditions: 5 μg/cm^2 (500 g/ha), after 48 h
# Description: Ctenocephalides felis—In Vitro Contact Tests with Adult Cat Fleas
# (§3) For the coating of the test tubes, 9 mg of active compound are first dissolved in 1 ml of acetone p.a. and then diluted to the desired concentration with acetone p.a. 250 μl of the solution are distributed homogeneously on the inner walls and the base of a 25 ml test tube by turning and rocking on an orbital shaker (rocking rotation at 30 rpm for 2 h). With 900 ppm active compound solution and internal surface 44.7 cm^2, given homogeneous distribution, an area-based dose of 5 μg/cm^2 is achieved.
# After the solvent has evaporated off, the tubes are populated with 5-10 adult cat fleas (Ctenocephalides felis), sealed with a perforated plastic lid and incubated in a horizontal position at room temperature and ambient humidity. After 48 h, efficacy is determined. To this end, the test tubes are stood upright and the fleas are knocked to the base of the tube. Fleas which remain motionless at the base or move in an uncoordinated manner are considered to be dead or moribund.
# 100% efficacy means that all the fleas were dead or moribund. 0% efficacy means that no fleas were harmed.
# Phaedon cochleariae = Phaedon cochleariae spray test; conditions: 500 g/ha, after 7 days, larvae on Chinese cabbage leaf discs
# Description: Phaedon cochleariae—Spray Test
# Solvent: 78.0 parts by weight of acetone • • 1.5 parts by weight of dimethylformamide
# (§4) Emulsifier: alkylaryl polyglycol ether
# (§5) To produce a suitable preparation of active compound, 1 part by weight of active compound is dissolved using the stated parts by weight of solvent and made up with water containing an emulsifier concentration of 1000 ppm until the desired concentration is attained. To produce further test concentrations, the preparation is diluted with emulsifier-containing water.
# After 7 days, the efficacy in % is determined. 100% means that all the beetle larvae have been killed; 0% means that no beetle larvae have been killed.
# Spodoptera frugiperda [4] = assay: Spodoptera frugiperda spray test (cotton leaves); conditions: 100 ppm, after 7 days
# Description: Spodoptera frugiperda—Spray Test
# Solvent: 7 parts by weight of dimethylformamide
# as §4
# as §5, with “water. If the addition of ammonium salts or/and penetrants is required, these are each added in a concentration of 1000 ppm to the formulation solution.” for “water.”
# Cotton leaves (Gossypium hirsutum) are sprayed with an active compound formulation of the desired concentration and populated with caterpillars of the armyworm (Spodoptera frugiperda).
# After 7 days, the kill in % is determined. 100% means that all the caterpillars have been killed; 0% means that none of the caterpillars have been killed.
# Meloidogyne incognita = Meloidogyne incognita test; conditions: 20 ppm, after 14 days, lettuce
# Description: Meloidogyne incognita Test
# Solvent: 125.0 parts by weight of acetone
# To produce a suitable preparation of active compound, 1 part by weight of active compound is mixed with the stated amount of solvent and the concentrate is diluted with water to the desired concentration.
# Vessels are filled with sand, active compound solution, an egg/larvae suspension of the southern root-knot nematode (Meloidogyne incognita) and lettuce seeds. The lettuce seeds germinate and the plants develop. The galls develop on the roots.
# After 14 days, the nematicidal efficacy in % is determined by the formation of galls. 100% means that no galls were found; 0% means that the number of galls on the treated plants corresponds to the untreated control.
# Myzus persicae [5] = assay: Myzus persicae spray test (Chinese cabbage leaf discs); conditions: 500 g/ha, after 6 days
# Description: Myzus persicae—Spray Test Solvent: 78 parts by weight of acetone • • 1.5 parts by weight of dimethylformamide Emulsifier: alkylaryl polyglycol ether […] To produce further test concentrations, the preparation is diluted with emulsifier-containing water. Discs of Chinese cabbage leaves (Brassica pekinensis) infested by all stages of the green peach aphid (Myzus persicae) are sprayed with an active compound preparation of the desired concentration.
# Rhipicephalus sanguineus = Rhipicephalus sanguineus in vitro contact test with adult brown dog ticks; conditions: 5 μg/cm^2 (500 g/ha), after 48 h
# Description: Rhipicephalus sanguineus—In Vitro Contact Tests with Adult Brown Dog Ticks
# as §3
# After the solvent has evaporated off, the tubes are populated with 5-10 adult dog ticks (Rhipicephalus sanguineus), sealed with a perforated plastic lid and incubated in a horizontal position in the dark at room temperature and ambient humidity. After 48 h, efficacy is determined. To this end, the ticks are knocked to the floor of the tube and incubated on a hotplate at 45-50° C. for not more than 5 min. Ticks which remain motionless on the floor or move in such an uncoordinated manner that they are unable to deliberately avoid the heat by climbing upwards are considered to be dead or moribund.
# An efficacy of 100% means that all the ticks were dead or moribund. 0% efficacy means that none of the ticks had been harmed.
# Musca domestica = Musca domestica test; conditions: 20 ppm, after 2 days, adult houseflies
# Description: as §1, §2
# Vessels containing a sponge treated with sugar solution and the active compound preparation of the desired concentration are populated with 10 adult houseflies (Musca domestica).
# After 2 days, the kill in % is determined. 100% means that all of the flies have been killed; 0% means that none of the flies have been killed.
# Spodoptera frugiperda [6] = assay: Spodoptera frugiperda spray test (maize leaf discs); conditions: 500 g/ha, after 7 days, caterpillars on maize leaf discs
# Description: Spodoptera frugiperda—Spray Test Solvent: 78.0 parts by weight of acetone • • 1.5 parts by weight of dimethylformamide Emulsifier: alkylaryl polyglycol ether […] To produce further test concentrations, the preparation is diluted with emulsifier-containing water. Leaf discs of maize (Zea mays) are sprayed with an active compound preparation of the desired concentration and, after drying, populated with caterpillars of the armyworm (Spodoptera frugiperda).
# Boophilus microplus = Boophilus microplus injection test; conditions: 20 μg/animal, assessed after 7 days
# Description: Boophilus microplus—Injection Test
# as §1
# To produce a suitable preparation of active compound, 10 mg of active compound are mixed with 0.5 ml of solvent and the concentrate is diluted with solvent to the desired concentration.
# 1 μl of the active compound solution is injected into the abdomen of 5 engorged adult female cattle ticks (Boophilus microplus). The animals are transferred into dishes and kept in a climate-controlled room.
# Efficacy is assessed after 7 days by laying of fertile eggs. Eggs which are not visibly fertile are stored in a climate-controlled cabinet until the larvae hatch after about 42 days. An efficacy of 100% means that none of the ticks has laid any fertile eggs; 0% means that all the eggs are fertile.
Structure (SMILES),efficacy (kill) (Myzus persicae [1]) [%],efficacy (kill) (Lucilia cuprina) [%],efficacy (kill) (Ctenocephalides felis [2]) [%],efficacy (Ctenocephalides felis [3]) [%],efficacy (Phaedon cochleariae) [%],efficacy (kill) (Spodoptera frugiperda [4]) [%],nematicidal efficacy (formation of galls) (Meloidogyne incognita) [%],efficacy (Myzus persicae [5]) [%],efficacy (Rhipicephalus sanguineus) [%],efficacy (kill) (Musca domestica) [%],efficacy (Spodoptera frugiperda [6]) [%],efficacy (laying of fertile eggs) (Boophilus microplus) [%]
CCS(=O)(=O)c1ccc(N2CCOCC2)nc1-c1nc2cc(C(F)(F)F)ncc2n1C [Example 1],95,90,98,,,,,,,,,
CCS(=O)(=O)c1ccc(-n2cnc(NC(C)=O)n2)nc1-c1nc2cc(C(F)(F)F)ncc2n1C [Example 11],100,100,100,100,100,,,,,,,
CCS(=O)(=O)c1ccc(-n2cnc(I)c2)nc1-c1nc2cc(C(F)(F)F)ncc2n1C [Example 14],,100,100,100,100,100,100,100,,,,
CCS(=O)(=O)c1ccc(-n2nccn2)nc1-c1nc2cc(C(F)(F)F)ncc2n1C [Example 17],,100,98,100,100,,,90,100,85,100,100
CCS(=O)(=O)c1ccc(-n2cncn2)nc1-c1nc2cc(C(F)(F)F)ncc2n1C [Example 32],,,,,100,100,,100,,,,
